≈ marks a conversion by molar mass, not a printed value. Calls of active or inactive are those of the source. The rule behind the calls is not given here.
Assays:
[1] = system: Escherichia coli; assay: Bactericidal activity against Escherichia coli ATCC 25922 after 18 hrs by microdilution method; type: functional; conditions: ATCC 25922, 18 h, read-out: MBC=>99.9
[2] = system: Escherichia coli; assay: Induction of membrane permeabilization in Escherichia coli ATCC 25922 assessed as loss of pili/flagella at MBC after 1 hr by atomic force microscopic method; type: functional
[3] = system: Escherichia coli; assay: Induction of membrane permeabilization in Escherichia coli ATCC 25922 assessed as loss of pili/flagella at MIC after 1 hr by atomic force microscopic method; type: functional
[4] = Cytotoxicity against human peripheral blood leukocytes assessed as cell viability at 0.18 uM after 24 hrs by acridine orange/ethidium bromide staining based fluorescence microscopic method relative to control; design: species or system Leukocyte; conditions: read-out: Activity
[5] = system: Escherichia coli; assay: Antibacterial activity against Escherichia coli ATCC 25922 after 18 hrs by microdilution method; type: functional; conditions: ATCC 25922, 18 h
[6] = system: Escherichia coli; assay: Antibacterial activity against clinical isolates of Escherichia coli after 18 hrs by microdilution method; type: functional
[7] = system: Acinetobacter baumannii; assay: Antibacterial activity against Acinetobacter baumannii ATCC 19606 after 18 hrs by microdilution method; type: functional; conditions: ATCC 19606 = CIP 70.34 = JCM 6841, 18 h
[8] = system: Acinetobacter baumannii; assay: Antibacterial activity against clinical isolates of Acinetobacter baumannii after 18 hrs by microdilution method; type: functional
[9] = system: Klebsiella pneumoniae; assay: Antibacterial activity against Klebsiella pneumoniae ATCC 13883 after 18 hrs by microdilution method; type: functional; conditions: ATCC 13883, 18 h
[10] = system: Klebsiella pneumoniae; assay: Antibacterial activity against clinical isolates of Klebsiella pneumoniae after 18 hrs by microdilution method; type: functional
[11] = system: Pseudomonas aeruginosa; assay: Antibacterial activity against Pseudomonas aeruginosa ATCC 27853 after 18 hrs by microdilution method; type: functional; conditions: ATCC 27853, 18 h
[12] = system: Pseudomonas aeruginosa; assay: Antibacterial activity against clinical isolates of Pseudomonas aeruginosa after 18 hrs by microdilution method; type: functional
[13] = system: Staphylococcus aureus; assay: Antibacterial activity against Staphylococcus aureus ATCC 25923 after 18 hrs by microdilution method; type: functional; conditions: ATCC 25923, 18 h
[14] = system: Staphylococcus aureus; assay: Antibacterial activity against clinical isolates of Staphylococcus aureus after 18 hrs by microdilution method; type: functional
[15] = system: Escherichia coli; assay: Bactericidal activity against clinical isolates of Escherichia coli after 18 hrs by microdilution method; type: functional; conditions: read-out: MBC=>99.9
[16] = system: Acinetobacter baumannii; assay: Bactericidal activity against Acinetobacter baumannii ATCC 19606 after 18 hrs by microdilution method; type: functional; conditions: ATCC 19606 = CIP 70.34 = JCM 6841, 18 h, read-out: MBC=>99.9
[17] = system: Acinetobacter baumannii; assay: Bactericidal activity against clinical isolates of Acinetobacter baumannii after 18 hrs by microdilution method; type: functional; conditions: read-out: MBC=>99.9
[18] = system: Klebsiella pneumoniae; assay: Bactericidal activity against Klebsiella pneumoniae ATCC 13883 after 18 hrs by microdilution method; type: functional; conditions: ATCC 13883, 18 h, read-out: MBC=>99.9
[19] = system: Klebsiella pneumoniae; assay: Bactericidal activity against clinical isolates of Klebsiella pneumoniae after 18 hrs by microdilution method; type: functional; conditions: read-out: MBC=>99.9
[20] = system: Pseudomonas aeruginosa; assay: Bactericidal activity against Pseudomonas aeruginosa ATCC 27853 after 18 hrs by microdilution method; type: functional; conditions: ATCC 27853, 18 h, read-out: MBC=>99.9
[21] = system: Pseudomonas aeruginosa; assay: Bactericidal activity against clinical isolates of Pseudomonas aeruginosa after 18 hrs by microdilution method; type: functional; conditions: read-out: MBC=>99.9
[22] = system: Staphylococcus aureus; assay: Bactericidal activity against Staphylococcus aureus ATCC 25923 after 18 hrs by microdilution method; type: functional; conditions: ATCC 25923, 18 h, read-out: MBC=>99.9
[23] = system: Staphylococcus aureus; assay: Bactericidal activity against clinical isolates of Staphylococcus aureus after 18 hrs by microdilution method; type: functional; conditions: read-out: MBC=>99.9
[24] = Selectivity index, ratio of HC50 for human RBC to MIC for Escherichia coli ATCC 25922
[25] = Selectivity index, ratio of HC50 for human RBC to MIC for Escherichia coli
[26] = Selectivity index, ratio of HC50 for human RBC to MIC for Acinetobacter baumannii ATCC 19606
[27] = Selectivity index, ratio of HC50 for human RBC to MIC for Acinetobacter baumannii
[28] = Selectivity index, ratio of HC50 for human RBC to MIC for Klebsiella pneumoniae ATCC 13883
[29] = Selectivity index, ratio of HC50 for human RBC to MIC for Klebsiella pneumoniae
[30] = Selectivity index, ratio of HC50 for human RBC to MIC for Pseudomonas aeruginosa ATCC 27853
[31] = Selectivity index, ratio of HC50 for human RBC to MIC for Pseudomonas aeruginosa
[32] = Selectivity index, ratio of HC50 for human RBC to MIC for Staphylococcus aureus ATCC 25923
[33] = Selectivity index, ratio of HC50 for human RBC to MIC for Staphylococcus aureus
[34] = system: Escherichia coli; assay: Growth inhibition of Escherichia coli ATCC 25922 measured every 10 mins for 4 hrs; type: functional
[35] = system: Staphylococcus aureus; assay: Growth inhibition of Staphylococcus aureus ATCC 25923 measured every 10 mins for 4 hrs; type: functional
[36] = system: Escherichia coli; assay: Induction of membrane permeabilization in Escherichia coli ATCC 25922 assessed as bleb formation at MIC after 1 hr by atomic force microscopic method; type: functional
[37] = system: Escherichia coli; assay: Induction of membrane permeabilization in Escherichia coli ATCC 25922 assessed as surface indentations at MIC after 1 hr by atomic force microscopic method; type: functional
[38] = system: Escherichia coli; assay: Induction of membrane permeabilization in Escherichia coli ATCC 25922 assessed as formation of pores/cavities at MIC after 1 hr by atomic force microscopic method; type: functional
[39] = system: Escherichia coli; assay: Induction of membrane permeabilization in Escherichia coli ATCC 25922 assessed as massive cell disruption/collapse at MBC after 1 hr by atomic force microscopic method; type: functional
[40] = system: Escherichia coli; assay: Induction of membrane permeabilization in Escherichia coli ATCC 25922 assessed as incipient damage at 0.25 uM after 1 hr by atomic force microscopic method; type: functional
[41] = system: Escherichia coli; assay: Induction of membrane permeabilization in Escherichia coli ATCC 25922 assessed as massive damage at 0.5 to 1 uM after 1 hr by atomic force microscopic method; type: functional
[42] = Genotoxicity in human peripheral blood leukocytes assessed as DNA damage up to 100 uM up to 24 hrs by alkaline comet assay; type: toxicity, cell-based; conditions: leukocyte
[43] = Cytotoxicity against human peripheral blood leukocytes assessed as cell viability at 50 uM after 4 hrs by acridine orange/ethidium bromide staining based fluorescence microscopic method relative to control; design: species or system Leukocyte; conditions: read-out: Activity
[44] = Cytotoxicity against human peripheral blood leukocytes assessed as cell viability at 50 uM after 24 hrs by acridine orange/ethidium bromide staining based fluorescence microscopic method relative to control; design: species or system Leukocyte; conditions: read-out: Activity
[45] = Cytotoxicity against human peripheral blood leukocytes assessed as cell viability at 100 uM after 4 hrs by acridine orange/ethidium bromide staining based fluorescence microscopic method relative to control; design: species or system Leukocyte; conditions: read-out: Activity
[46] = Cytotoxicity against human peripheral blood leukocytes assessed as cell viability at 100 uM after 24 hrs by acridine orange/ethidium bromide staining based fluorescence microscopic method relative to control; design: species or system Leukocyte; conditions: read-out: Activity
[47] = system: Escherichia coli; assay: Induction of membrane permeabilization in Escherichia coli ATCC 25922 assessed as propidium iodide uptake preincubated up to 60 mins followed by propidium iodide addition by flow cytometry; type: functional

CC[C@H](C)[C@H](NC(=O)CN)C(=O)NCC(=O)N[C@@H](C)C(=O)N[C@H](C(=O)N[C@@H](CC(C)C)C(=O)N[C@@H](CCCCN)C(=O)N[C@H](C(=O)N[C@@H](CC(C)C)C(=O)N[C@H](C(=O)N[C@H](C(=O)NCC(=O)N[C@@H](CC(C)C)C(=O)N1CCC[C@H]1C(=O)N[C@@H](C)C(=O)N[C@@H](CC(C)C)C(=O)N[C@H](C(=O)N[C@@H](CO)C(=O)N[C@@H](Cc1c[nH]c2ccccc12)C(=O)N[C@H](C(=O)N[C@@H](CCCCN)C(=O)N[C@@H](CCCNC(=N)N)C(=O)N[C@@H](CCCCN)C(=O)N[C@@H](CCCNC(=N)N)C(=O)N[C@@H](CCC(N)=O)C(=O)N[C@@H](CCC(N)=O)C(N)=O)[C@@H](C)CC)[C@@H](C)CC)[C@@H](C)O)[C@@H](C)O)C(C)C)C(C)C [MELITTIN]
MBC [1]: 20 µM (≈ 56.9 µg/mL)
Activity [2]: Active
Activity [3]: Active
viability at 24 h, 0.18 µM [4]: 60%

H-KIAKGALKALKIAKVALKAL-NH2
MIC [5]: 0.25 to 0.5 µM
MIC [6]: 4 µM
MIC [7]: 0.5 to 1 µM
MIC [8]: 0.5 µM
MIC [9]: 2 µM
MIC [10]: 4 µM
MIC [11]: 2 µM
MIC [12]: 2 to 4 µM
MIC [13]: 8 to 16 µM
MIC [14]: 4 to 8 µM
MBC [1]: 0.5 to 1 µM
MBC [15]: 8 µM
MBC [16]: 1 µM
MBC [17]: 1 µM
MBC [18]: 2 µM
MBC [19]: 8 µM
MBC [20]: 4 µM
MBC [21]: 4 µM
MBC [22]: 8 to 16 µM
MBC [23]: 8 µM
Selectivity Index [24]: 60 to 120
Selectivity Index [25]: 7
Selectivity Index [26]: 30 to 60
Selectivity Index [27]: 60
Selectivity Index [28]: 15
Selectivity Index [29]: 7
Selectivity Index [30]: 15
Selectivity Index [31]: 7 to 15
Selectivity Index [32]: 2 to 4
Selectivity Index [33]: 4 to 8
IC50 [34]: 350 nM
IC50 [35]: 800 nM
Activity [36]: Active
Activity [37]: Active
Activity [38]: Active
Activity [39]: Active
Activity [2]: Active
Activity [40]: Active
Activity [41]: Active
Activity [42]: Non-Toxic
viability at 4 h, 50 µM [43]: 92%
viability at 24 h, 50 µM [44]: 92%
viability at 4 h, 100 µM [45]: 89%
viability at 24 h, 100 µM [46]: 83%
IC50 [47]: 500 nM
